As a reminder, the IC50 is the concentration that gives 50% inhibition.

In patent publication US20140323418A1, “SELECTIVE KINASE INHIBITORS” (PORTOLA PHARMACEUTICALS, INC., priority 2011, published 2014) one finds IC50 data, which are given here for 38 compounds.

Structures are written as SMILES. Some results are limits rather than exact numbers.

The assay concerns the target T1, full length active recombinant SYK enzyme (Homo sapiens, UniProt P43405).
T1 construct: full length active recombinant SYK enzyme (Millipore, Calif.); purchased Millipore
The assay is described as follows: Inhibition of Syk tyrosine phosphorylation activity (LANCE TR-FRET kinase assay). It is filed as biochemical. Particulars: 1 nM SYK, 550 nM substrate, 100 μM ATP, 1 hour room temperature.
As for `Cc1cccc(Nc2nc(N[C@H]3CC[C@@H](N)C3)ncc2C(N)=O)c1` [Example 118, 4-(m-toluidino)-2-((1S,3R)-3-aminocyclopentylamino)pyrimidine-5-carboxamide], the IC50 was 100 to 1000 nM.
To `Cc1nsc(Nc2nc(N[C@@H]3CCCC[C@@H]3N)ncc2C(N)=O)c1Cl` [Example 232, 2-(((1R,2S)-2-aminocyclohexyl)amino)-4-((4-chloro-3-methylisothiazol-5-yl)amino)pyrimidine-5-carboxamide] belongs 10 to 100 nM.
Under `CC(C)(C(=O)O)c1cccc(Nc2nc(N[C@@H]3CCCC[C@@H]3N)ncc2C(N)=O)c1` [Example 203] stands 100 to 1000 nM; under `Cc1cccc(Nc2nc(N[C@H](C(C)C)C3(N)CC3)ncc2C(N)=O)c1` [Example 144, (R)-2-(1-(1-aminocyclopropyl)-2-methylpropylamino)-4-(m-tolylamino)pyrimidine-5-carboxamide], 1 to 10 nM.
For `Cc1cc(C)cc(Nc2nc(N[C@@H]3CCCC(F)(F)[C@@H]3N)ncc2C(N)=O)c1` [Example 33, 2-(((1R,2R)-2-amino-3,3-difluorocyclohexyl)amino)-4-((3,5-dimethylphenyl)amino)pyrimidine-5-carboxamide], the IC50 fell in the range of 100 to 1000 nM.
For the compound `Cc1ccc(Nc2ncc(C(N)=O)c(N[C@H]3CC[C@@H](N)CC3)n2)cc1` [Example 184, 4-(4-aminocyclohexylamino)-2-(p-tolylamino)pyrimidine-5-carboxamide], the 50% inhibitory concentration (IC50) is 10 to 100 nM.
For the compound `COc1cccc(Nc2ncc(C(N)=O)c(NC3CCC(N)CC3)n2)c1` (stereo in doubt) [Example 247, 4-(trans-4-aminocyclohexylamino)-2-(3-methoxyphenylamino)pyrimidine-5-carboxamide], the IC50 lay in the range of 10 to 100 nM.
For the compound `C[C@@H](Nc1ncc(C(N)=O)c(Nc2cccc3c2ccn3C)n1)C1CC1` [Example 110, (R)-2-(1-cyclopropylethylamino)-4-(1-methyl-1H-indol-4-ylamino)pyrimidine-5-carboxamide], the 50% inhibitory concentration (IC50) lay in the range of 100 to 1000 nM.
For `[N-]=[N+]=N[C@H]1CCCC[C@H]1Nc1ncc(C(N)=O)c(Nc2cccc(-n3nccn3)c2)n1` [Example 8, 4-(3-(2H-1,2,3-triazol-2-yl)phenylamino)-2-((1R,2S)-2-azidocyclohexylamino)pyrimidine-5-carboxamide], the IC50 was in the range of 100 to 1000 nM.
As for `Cc1cccc(Nc2nc(N[C@H](c3ccccc3)C3(N)CC3)ncc2C(N)=O)c1` [Example 147, (R)-2-(1-(1-aminocyclopropyl)(phenyl)methylamino)-4-(m-tolylamino)pyrimidine-5-carboxamide], the IC50 was in the range of 10 to 100 nM.
In the case of `Cn1ccc2c(Nc3nc(N[C@@H]4CCCC(F)(F)[C@@H]4N)ncc3C(N)=O)cccc21` [Example 91, 2-((1R,2R)-2-amino-3,3-difluorocyclohexylamino)-4-(1-methyl-1H-indol-4-ylamino)pyrimidine-5-carboxamide], the IC50 is 10 to 100 nM.
Regarding `NC(=O)c1cnc(N[C@@H]2CCCC(F)(F)[C@@H]2N)nc1Nc1cccc(-c2ncccn2)c1` [Example 26, 2-(((1R,2R)-2-amino-3,3-difluorocyclohexyl)amino)-4-((3-(pyrimidin-2-yl)phenyl)amino)pyrimidine-5-carboxamide], the IC50 fell in the range of 100 to 1000 nM.
With `CCOC(=O)[C@@H]1CC[C@@H](Nc2ncc(C(N)=O)c(Nc3cccc(C)c3)n2)[C@@H](N)C1` (racemic) [Example 188, (1R,3S,4R)-ethyl 3-amino-4-(5-carbamoyl-4-(m-tolylamino)pyrimidin-2-ylamino)cyclohexanecarboxylate], the IC50 was 10 to 100 nM.
With `NC(=O)c1cnc(N[C@@H]2CCCC(F)(F)[C@@H]2N)nc1Nc1cccc(-n2nccn2)c1` [Example 13], the IC50 was in the range of 100 to 1000 nM.
Take `C[C@@H](Nc1ncc(C(N)=O)c(Nc2cccc(-n3cccn3)c2)n1)C1(N)CC1` [Example 143, (R)-4-(3-(1H-pyrazol-1-yl)phenylamino)-2-(1-(1-aminocyclopropyl)ethylamino)pyrimidine-5-carboxamide]: the IC50 lay within 1 to 10 nM.
As to `CC[C@@H](Nc1ncc(C(N)=O)c(Nc2cnc3ccccc3c2)n1)C(N)=O` [Example 68, (R)-2-(1-amino-1-oxobutan-2-ylamino)-4-(quinolin-3-ylamino)pyrimidine-5-carboxamide], the IC50 lay in the range of 10 to 100 nM.
As to `COC(=O)C(C)(C)c1cccc(Nc2nc(N[C@@H]3CCCC[C@@H]3N)ncc2C(N)=O)c1` [Example 201], the IC50 lay in the range of 100 to 1000 nM.
Consider `NC(=O)c1cnc(N[C@H](C2CC2)C2(N)CC2)nc1Nc1ccc2scnc2c1` [Example 166, (R)-2-(1-(1-aminocyclopropyl)(cyclopropyl)methylamino)-4-(benzo[d]thiazol-5-ylamino)pyrimidine-5-carboxamide], for which the IC50 lay within 10 to 100 nM.
Under `NC(=O)c1cnc(N[C@@H]2CCCC[C@@H]2N)nc1Nc1ccc(-c2ncco2)cc1` [Example 255, 2-(((1R,2S)-2-aminocyclohexyl)amino)-4-((4-(oxazol-2-yl)phenyl)amino)pyrimidine-5-carboxamide] stands 10 to 100 nM; under `Cn1ccc2c(Nc3nc(NC4CCCCC4)ncc3C(N)=O)cccc21` [Example 108, 2-(cyclohexylamino)-4-(1-methyl-1H-indol-4-ylamino)pyrimidine-5-carboxamide], 100 to 1000 nM; under `CC(=O)N[C@H]1CCCC[C@H]1Nc1ncc(C(N)=O)c(Nc2cccc(-n3nccn3)c2)n1` [Example 196], 100 to 1000 nM.
Take `Cc1cccc(Nc2nc(N[C@@H]3C[C@@H](C(N)=O)CC[C@@H]3N)ncc2C(N)=O)c1` (racemic) [Example 243, 2-((1R,2S,5S)-2-amino-5-carbamoylcyclohexylamino)-4-(m-tolylamino)pyrimidine-5-carboxamide]: the IC50 fell in the range of 100 to 1000 nM.
To `NC(=O)c1cnc(NC[C@@H](N)CC(F)F)nc1Nc1cccc2c1CCN2CC(F)(F)F` [Example 97] belongs 10 to 100 nM.
With `NC(=O)c1cnc(N[C@@H]2[C@H](F)CCC[C@@H]2N)nc1Nc1cccc(-n2nccn2)c1` (racemic) [Example 175, (±)-4-(3-(2H-1,2,3-triazol-1-yl)phenylamino)-2-((1S,2S,6R)-2-amino-6-fluorocyclohexylamino)pyrimidine-5-carboxamide], the IC50 is 10 to 100 nM.
Turning to `NC(=O)c1cnc(N[C@@H]2CCCC[C@@H]2N)nc1Nc1ccc(Br)c(-n2nccn2)c1` [Example 20, 2-((1R,2S)-2-aminocyclohexylamino)-4-(4-bromo-3-(2H-1,2,3-triazol-2-yl)phenylamino)pyrimidine-5-carboxamide], the IC50 fell in the range of 10 to 100 nM.
On to `Cn1ccc2c(Nc3nc(NCC(N)C(C)(F)F)ncc3C(N)=O)cccc21` (centres unmarked) [Example 104, 2-(2-amino-3,3-difluorobutylamino)-4-(1-methyl-1H-indol-4-ylamino)pyrimidine-5-carboxamide], for which the IC50 lay within 10 to 100 nM.
With `NC(=O)c1cnc(N[C@@H]2CCN(C=O)C2)nc1Nc1cccc(-n2nccn2)c1` [Example 228], the IC50 was more than 1000 nM.
On to `CNC(=O)[C@@H]1CC[C@@H](Nc2ncc(C(N)=O)c(Nc3cccc(C)c3)n2)[C@@H](N)C1` (racemic) [Example 189, 2-((1R,2S,4R)-2-amino-4-(methylcarbamoyl)cyclohexylamino)-4-(m-tolylamino)pyrimidine-5-carboxamide], for which the 50% inhibitory concentration (IC50) was in the range of 1 to 10 nM.
Under `NC(=O)c1cnc(N[C@H](C2CC2)C2(N)CC2)nc1Nc1cccc(-c2ncccn2)c1` [Example 135, (R)-2-(1-(1-aminocyclopropyl)(cyclopropyl)methylamino)-4-(3-(pyrimidin-2-yl)phenylamino)pyrimidine-5-carboxamide] stands 1 to 10 nM; under `NC(=O)c1cnc(N[C@H]2CCCC(F)(F)[C@H]2N)nc1Nc1cccc(-n2nccn2)c1` [Example 19], 100 to 1000 nM; under `Cc1csc(Nc2nc(N[C@@H](C(N)=O)C(C)C)ncc2C(N)=O)c1` [Example 195, (R)-2-(1-amino-3-methyl-1-oxobutan-2-ylamino)-4-(4-methylthiophen-2-ylamino)pyrimidine-5-carboxamide], 1 to 10 nM.
On to `NC(=O)c1cnc(N[C@@H]2CCOC[C@@H]2N)nc1Nc1ccc2ncsc2c1` [Example 181, 2-((3R,4R)-3-aminotetrahydro-2H-pyran-4-ylamino)-4-(benzo[d]thiazol-6-ylamino)pyrimidine-5-carboxamide], for which the IC50 lay in the range of 10 to 100 nM.
As to `CCn1ccc2c(Nc3nc(N[C@@H](CN)C4CC4)ncc3C(N)=O)cccc21` [Example 88, (R)-2-(2-amino-1-cyclopropylethylamino)-4-(1-ethyl-1H-indol-4-ylamino)pyrimidine-5-carboxamide], the IC50 lay within 1 to 10 nM.
To `CC(C)[C@@H](Nc1ncc(C(N)=O)c(Nc2ccc3c(ccc[n+]3[O-])c2)n1)C(N)=O` [Example 70, (R)-2-(1-amino-3-methyl-1-oxobutan-2-ylamino)-4-(quinolin-6-ylamino)pyrimidine-5-carboxamide N-oxide] belongs 100 to 1000 nM; to `CCC[C@@H](Nc1ncc(C(N)=O)c(Nc2cccc(OC)c2)n1)C(N)=O` [Example 61, (R)-2-((1-amino-1-oxopentan-2-yl)amino)-4-((3-methoxyphenyl)amino)pyrimidine-5-carboxamide], 100 to 1000 nM; to `Cc1cccc(Nc2nc(NC[C@@H](N)CC(F)F)ncc2C(N)=O)c1` [Example 78, (S)-4-(m-toluidino)-2-(2-amino-4,4-difluorobutylamino)pyrimidine-5-carboxamide], 10 to 100 nM.
In the case of `NC(=O)c1cnc(N[C@@H]2CCC[C@H](F)[C@@H]2N)nc1Nc1cccc(-c2ncccn2)c1` [Example 236, 2-((1R,2R,3S)-2-amino-3-fluorocyclohexylamino)-4-(3-(pyrimidin-2-yl)phenylamino)pyrimidine-5-carboxamide], the IC50 is 10 to 100 nM.
For the compound `CCn1ccc2c(Nc3nc(NC[C@@H](N)CC(F)F)ncc3C(N)=O)cccc21` [Example 76, (S)-2-(2-amino-4,4-difluorobutylamino)-4-(1-ethyl-1H-indol-4-ylamino)pyrimidine-5-carboxamide], the IC50 fell in the range of 1 to 10 nM.
